Test results reported in patent US7652037B2, “Methods of lowering lipid levels in a mammal” (City Of Hope, priority 2003, dated 2010).
pIC50: −log10 of the molar value.

Legend:
[1] = system: diabetic and hyperlipidemic rats; settings: diabetic and hyperlipidemic rats (Degenhardt et al.; Alderson et al.); cited from earlier work
[2] = Inhibition of copper-catalyzed oxidation of ascorbic acid (Cu2+ chelating activity); settings: 500 nmol/L CuCl2, 500 μmol/L ascorbic acid, phosphate buffer pH 7.4, 60 minutes; read-out: IC50, concentration that inhibited the rate of AA oxidation by 50%
Description: In vitro measurement of the kinetics of inhibition of copper-catalyzed oxidation of ascorbic acid was performed according to the methods of Price et al., J. Biol. Chem. 276:48967-48972, 2001. Briefly, CuCl2 and various concentrations of inhibitor compounds were pre-incubated in chelex-treated 20 mmol/L phosphate buffer, pH 7.4, for 5 minutes. Ascorbic acid then was added (50 μL of 10 mmol/L in water) to initiate the reaction (1 mL total reaction volume). The final concentrations of CuCl2 and ascorbic acid in the reaction were 500 nmol/L and 500 μmol/L, respectively. Aliquots (135 μL) were removed at 0 and 60 minutes and transferred to autoinjector vials containing 15 μL of 10 mmol/l DTPA. Samples were analyzed by reversed phase HPLC on an XTerra™ RP18 column (250 mm×4.6 mm, 5 μm) with an XTerra™ RP18 5 μm guard column using a Waters® 2690 Separator Module equipped with auto-injector and Millenium® 32 software. Solvents and gradient were all used as described in Dillon et al., Life Sci. 72:1583-1594, 2003. The absorbance of ascorbic acid was measured at 244 nm and the peak area was obtained to estimate the percent of ascorbic acid remaining versus time. For each inhibitor compound, the concentration that inhibited the rate of AA oxidation by 50% (IC50), was calculated with respect to the control using Prism™ software.

[3] = Superoxide production, methylglyoxal with N-α-acetyl-lysine, WST-1 assay
Description: The superoxide radical scavenging activity of the compounds was evaluated using the WST-1 method described in Ukeda et al., Anal. Sci. 18:1151-1154, 2002. Briefly, methylglyoxal, was incubated with or without N-α-acetyl-lysine in 0.05 M chelex-treated sodium phosphate buffer, pH 7.4, in the presence of various concentrations of the inhibitor compounds. The production of superoxide was monitored spectrophotometrically at 438 nm, and compared with superoxide dismutase and Tiron, two known superoxide radical scavengers.

[4] = system: rats with diabetic nephropathy; settings: rats with diabetic nephropathy (Forbes et al.); cited from earlier work
[5] = system: Human LDL; assay: Cu++-mediated LDL oxidation, TBARS (Example 16); settings: 250 μM compound, followed for 5 hours; control lag phase about 2 hours
Description: Human LDL was isolated from plasma of healthy donors by single vertical spin centrifugation (see Chung et al., Methods Enzymol. 128:181-209, 1986) and used within 24-48 hours of preparation. LDL (50 μg/mL) was incubated at 37° C. in 50 mM chelex-treated phosphate buffer, pH 7.4, alone or in the presence of 5 μM CuCl2 or 5 μM CuCl2 plus various concentrations of the LR compounds. After 5 hours of incubation, aliquots from each reaction mixture were removed for measurement of thiobarbituric acid-reacting substances (TBARS) as described in Satoh, Clin. Chim. Acta 90:37-43, 1978. Briefly, 250 μL of 20% trichloroacetic acid was added to 500 μL of sample aliquot, followed by 750 μL of 1% […]. The samples then were vortexed and incubated in a boiling water bath for 10 minutes. Upon cooling, the samples were centrifuged for 5 minutes at 5000 rpm. Absorbance of the supernatant was taken at 532 nm, and expressed as MDA equivalents using 1,1,3,3-tetramethoxypropane as standards. For fatty acid oxidation studies, linoleic acid (5#mM) was incubated alone or in the presence of 1 mM LR compound in […] phosphate buffer, pH 7.4, for 7 days at 37° C. Aliquots from each reaction mixture were withdrawn periodically for measurement of TBARS as described above.
Results are shown in FIG. 23A, where values are provided as means±SD of two independent experiments (n=4 for each treatment). In separate experiments, the time course for the oxidative modification fo LDL by Cu^++ in the presence of 250 μM compound was followed for 5 hours and aliquots for each time interval were assayed for TBARS. Values in FIG. 23B are means±SD of two independent experiments (n=4 per treatment).

[6] = system: Human LDL; assay: Cu++-mediated oxidation of LDL, TBARS (Example 9); settings: 5 μM CuCl2, 10-250 μM compound, 5 hours, 37° C.
Description: The ability of the LR compounds to inhibit lipid peroxidation was tested using Cu^++-mediated lipid oxidation, a common in vitro model for studies on lipoxidative modifications of proteins. The effects of the LR compounds on lipid peroxidation were studied using Cu^++-mediated oxidation of LDL. Human LDL (50 μg of protein/mL) was incubated at 37° C. in chelex-treated PBS buffer alone or in the presence of 5 μM CuCl2 or 5 μM CuCl2 plus various concentrations of the inhibitor compounds (10-250 μM). After 5 hours of incubation, the amount of thiobarbituric acid reactive substances (expressed as malondialdehyde (MDA) equivalents) generated in the reaction mixture was calculated according to methods described by Dillon et al., Life Sci. #72:1583-1594, 2003. Briefly, aliquots from each sample were precipitated with 20% trichloroacetic acid, centrifuged and an equal volume of 1% thiobarbituric acid was added to the supernatant. The samples then were heated to 95° C. for 10 minutes, and upon cooling, the absorbance was read at 532 nm. Hydrolyzed tetraethoxypropane was used as a standard for the MDA equivalent calculation.

Structure (SMILES): N=C(N)NN [AG, aminoguanidine, reference compound]
- lipid-lowering effects [1]: lipid-lowering effects
- pIC50 [2]: 2.56
- effect on superoxide production [3]: little or no effect
- increase in CML-AGE and nitrotyrosine staining [4]: attenuated

Structure (SMILES): Cc1ncc(CO)c(CN)c1O [PM, pyridoxamine, reference compound]
- lipid-lowering effects [1]: lipid-lowering effects
- time course of Cu++-mediated oxidation of LDL [5]: no effect
- inhibition of Cu++-mediated LDL oxidation (lipid peroxidation) [6]: no effect
- inhibition of Cu++-mediated LDL oxidation (lipid peroxidation) ([6]; listed as pyridoxamine): minimal effects

Structure (SMILES): CCOC(=O)[C@H](CCc1ccccc1)N[C@@H](C)C(=O)N1[C@H](C(=O)O)C[C@@H]2CCC[C@@H]21 [ramipril]
- increase in CML-AGE and nitrotyrosine staining [4]: attenuated
